As a reminder, the IC50 is the concentration at which inhibition is half-maximal.

The values below come from patent US20230364033A1, “COMPOUNDS FOR TREATING VIRUS INFECTIONS” (Meletios Therapeutics, priority 2020, published 2023).

The structures appear in SMILES notation. Where two headings read alike, the source gives them in different places.

Data set [1] is described as follows: in vitro. The following applies: human.
Data set [2] deals with human α-coronavirus 229E. The experiment in a line: Viral inhibition (CPE / cell viability readout) in 16HBE cells infected by α-coronavirus 229E. It is filed as cell-based. The following applies: for EC50: 120 h, read-out: EC50 (concentration which results in 50% viral inhibition). The procedure:
The EC50 and CC50 of SR-31747 were determined in an in vitro model of infection by human α-coronavirus 229E.
Briefly, a dilution series of SR-31747 (8-point, half-log dose titration, 30 μM-10 nM) was added to 16HBE cells. Vehicle and positive control (remdesivir, 8-point, half-log dose titration, 20 μM-6.4 nM) wells were set up to control for any influence of the compounds alone on cell viability. Cells were visually inspected for the appearance of any cytopathic effects (CPE). A cell viability assay was performed once CPE was complete.
The readouts were: • EC50: The concentration which results in 50% viral inhibition, following the addition of compounds; • CC50: The concentration which results in 50% cell viability, following the addition of compounds; • Selectivity index: Calculated as CC50/EC50.
Protocol: • 1. 16HBE cells permissible to infection by α-coronavirus 229E were grown and seeded into 96-well plates to a confluency of 80-90%. • 2. The compounds SR-31747 and remdesivir (positive control) were serially diluted half-log into 8 concentrations in total and added to cells for 1 hour at 37° C. • 3. After 1 hour, α-coronavirus 229E was added at 100xTCID50. A mock infection of blank media was added to the uninfected controls. • 4. After infection, the virus/compound was removed and an overlay medium was added, with equivalent concentrations of the compounds. • 5. […] Once CPE was observed, supernatants were taken and stored at −80° C. • 7. A cell viability assay was then performed on all conditions, with cells receiving the treatment compared to the vehicle treated and uninfected controls. Calculations are as follows:
% viral inhibition=[(A-B)/(C-B)] x100, where: • A: mean optical density of test, B: mean optical density of virus controls, C: mean optical density of cell controls. • Negative values occur when A<B, due either to natural variation or compound toxicity.

Data set [3] concerns SARS-CoV-2. Put plainly: microbe, parasite or virus in culture. As to conditions: Severe acute respiratory syndrome coronavirus 2; A549-ACE2 cells, MOI 0,1, 72 hours, viral replication inhibition; read-out: RTqPCR: IC50. It is filed as cell-based. On the technique in general: Quantitative PCR measures a nucleic acid by following its amplification.
For data set [4], the system named is SARS-CoV-2. The experiment in a line: SARS-CoV-2-infected golden hamster model of COVID-19. The format is in vivo. The following applies: infected hamsters. The source says: SR-31747 was used freshly diluted in a diluent consisting of […], 5% ethanol and 5% tween-80.
24 male hamsters RjHan:AURA SPF were acclimated during 7 days and distributed in 4 groups of 6 hamsters each: • Group 1: Infected by SARS-CoV-2 and treated by SR-31747 • Group 2: Infected by SARS-CoV-2 and treated by diluent (negative control) • Group 3: Non-infected and treated by SR-31747 • Group 4: Non-infected and treated by diluent
On day 0, hamsters were infected intranasally by SARS-CoV-2 and received a first intraperitoneal injection of SR-31747 at 40 mg/kg.
On days 1, 2 and 3 the hamsters received an intraperitoneal injection of SR-31747 at 40 mg/kg. On day 4 sera and lungs from the hamsters were sampled.
From day 0 of day 4, the body temperature of the hamsters was measured at both flanks using a touchless infrared thermometer and a cumulative clinical score was determined (ruffled fur (no=0 or yes=1), slow movements (no=0, yes=1), apathy (no=0, yes=1), absence of rearing/exploration (no=0, yes=1)).
An olfactory test was conducted on day 3 preceded by a day of fasting. Briefly, cereals were buried in the litter of an individual cage and the latency to find the hidden cereals by the hamsters was measured.

In the case of `CCC(CC)COC(=O)[C@H](C)N[P@](=O)(OC[C@H]1O[C@@](C#N)(c2ccc3c(N)ncnn23)[C@H](O)[C@@H]1O)Oc1ccccc1` [Remdesivir, remdesivir, reference compound], in data set [1], the CC50 was more than 20 µM. Also, the EC50 in data set [2] (16HBE) came out at 0.34 µM.
For the molecule `CCN(C/C=C\c1ccc(C2CCCCC2)c(Cl)c1)C1CCCCC1` [SR-31747, N-[(Z)-3-(3-chloro-4-cyclohexylphenyl)prop-2-enyl]-N-ethylcyclohexanamine], the IC50 in data set [3] stood at 2.88 µM. For the same molecule, in data set [4] (40 mg/kg intraperitoneal days 0-3, day 4, p=0,009 Mann-Whitney test), the Cumulative clinical score entry is “significantly reduces”. In addition, in data set [4] (40 mg/kg intraperitoneal, day 3), the “Olfactory test: latency to find hidden cereals” value was “alleviates the olfactory dysfunction”. Further, in data set [4] (40 mg/kg intraperitoneal, day 4, increase due to infection), the Lung weight result is on record as “significantly alleviated”. Further, in data set [4] (40 mg/kg intraperitoneal, days 2 and 4), the Body temperature entry is “significantly increases”. Moreover, the EC50 in data set [2] (16HBE cells, α-coronavirus 229E at 100xTCID50, about 5 days) was determined as 1.36 µM. The “Selectivity index (CC50/EC50)” value in data set [2] (α-coronavirus 229E, 16HBE cells) is 5.
